Results taken from ChEMBL document CHEMBL2202954, “The effect of PLC-γ2 inhibitors on the growth of human tumour cells” (2012).

Columns and labels:
Format in all cases: functional
OVCAR-3 = experiment: Cytotoxicity against human OVCAR3 cells assessed as cellular growth at 10 uM by SRB assay
HCT-116 = experiment: Cytotoxicity against human HCT116 cells assessed as cellular growth at 10 uM by SRB assay
SK-MEL-5 = experiment: Cytotoxicity against human SK-MEL-5 cells assessed as cellular growth at 10 uM by SRB assay
NCI-H522 = experiment: Cytotoxicity against human NCI-H522 cells assessed as cellular growth at 10 uM by SRB assay
RXF 393 = experiment: Cytotoxicity against human RXF393 cells assessed as cellular growth at 10 uM by SRB assay
786-0 = experiment: Cytotoxicity against human 786-0 cells assessed as cellular growth at 10 uM by SRB assay
UO-31 = experiment: Cytotoxicity against human UO31 cells assessed as cellular growth at 10 uM by SRB assay
MDA-MB-468 = experiment: Cytotoxicity against human MDA-MB-468 cells assessed as cellular growth at 10 uM by SRB assay
BT-549 = experiment: Cytotoxicity against human BT549 cells assessed as cellular growth at 10 uM by SRB assay
NCI-H23 = experiment: Cytotoxicity against human NCI-H23 cells assessed as cellular growth at 10 uM by SRB assay
HCT-15 = experiment: Cytotoxicity against human HCT15 cells assessed as cellular growth at 10 uM by SRB assay
SF-539 = experiment: Cytotoxicity against human SF539 cells assessed as cellular growth at 10 uM by SRB assay
CCRF-CEM = experiment: Cytotoxicity against human CCRF-CEM cells assessed as cellular growth at 10 uM by SRB assay
SNB-75 = experiment: Cytotoxicity against human SNB75 cells assessed as cellular growth at 10 uM by SRB assay
SNB-19 = experiment: Cytotoxicity against human SNB19 cells assessed as cellular growth at 10 uM by SRB assay
SK-OV-3 = experiment: Cytotoxicity against human SKOV3 cells assessed as cellular growth at 10 uM by SRB assay
KM12 = experiment: Cytotoxicity against human KM12 cells assessed as cellular growth at 10 uM by SRB assay
T47D = experiment: Cytotoxicity against human T47D cells assessed as cellular growth at 10 uM by SRB assay
Hs-578T = experiment: Cytotoxicity against human Hs578T cells assessed as cellular growth at 10 uM by SRB assay
NCI-H226 = experiment: Cytotoxicity against human NCI-H226 cells assessed as cellular growth at 10 uM by SRB assay

Row | SMILES | Activity (OVCAR-3) [%] | Activity (HCT-116) [%] | Activity (SK-MEL-5) [%] | Activity (NCI-H522) [%] | Activity (RXF 393) [%] | Activity (786-0) [%] | Activity (UO-31) [%] | Activity (MDA-MB-468) [%] | Activity (BT-549) [%] | Activity (NCI-H23) [%] | Activity (HCT-15) [%] | Activity (SF-539) [%] | Activity (CCRF-CEM) [%] | Activity (SNB-75) [%] | Activity (SNB-19) [%] | Activity (SK-OV-3) [%] | Activity (KM12) [%] | Activity (T47D) [%] | Activity (Hs-578T) [%] | Activity (NCI-H226) [%]
1 | Nc1c(C(=O)Nc2ccccc2F)sc2nc3c(cc12)C(=O)CCC3 | 16.76 | 32.04 | 17.91 | -15.17 | 9.63 | 41.5 | 76 | -15.24 | 59.83 | 42.84 | 40.21 | 10.48 | 26.78 | 13.66 | 41.11 | 13.58 | 24.63 | 40.19 | 37.25 | 75.1
2 | Cc1ccc2c(c1)N/C(=C/C(=O)c1ccc(Cl)cc1)C(=O)O2 | 119.21 | 105.71 | 102.04 | 81.38 | 111.43 | 117.98 | 94.15 | 107.35 | 109.64 | 98.65 | 99.12 | 106.89 | 65.56 | 86.32 | 105.39 | 110.03 | 102.59 | 106.85 | 113.45 | 105.28
3 | COc1ccc2nc(NC(=O)c3ccc(F)cc3)sc2c1 | 101.58 | 95.31 | 89.97 | 75.43 | 110.56 | 96.69 | 99.75 | 102.55 | 104.05 | 85.96 | 85.45 | 97.47 | 91.13 | 109.5 | 109.05 | 104.34 | 93.29 | 76.48 | 114.71 | 92.48
4 | COc1cc(/C=c2/sc3nc4ccccc4n3c2=O)cc(I)c1O | 97.63 | 98.72 | 81.43 | 99.27 | 116.35 | 97.48 | 70.56 | 71.12 | 102.32 | 94.22 | 91.48 | 112.47 | 83.8 | 114.58 | 108.08 | 96.7 | 80.63 | 82.96 | 107.68 | 94.19
5 | O=c1/c(=C/c2ccccc2Cl)sc2nc(-c3ccccc3)nn12 | 108.39 | 72.43 | 93.49 | 85.92 | 99.76 | 101.12 | 58.67 | 96.99 | 91.77 | 86.7 | 79.8 | 94.89 | 56.07 | 64.38 | 90.58 | 104.04 | 89.57 | 90.39 | 89.46 | 100.04
6 | O=C(NCc1cccnc1)c1sc2cc([N+](=O)[O-])ccc2c1Cl | 100.57 | 99.66 | 96.88 | 97.09 | 111.54 | 96.95 | 76.73 | 106.53 | 97.89 | 97.31 | 97.65 | 103.86 | 100.08 | 91.37 | 96.96 | 91.06 | 96.39 | 84.08 | 92.59 | 97.25
7 | CC1(C)CC(=O)c2cc3c(N)c(C(=O)Nc4ccccc4Cl)sc3nc2C1 | 121.58 | 113.5 | 100.73 | 102.8 | 117.18 | 102.03 | 117.05 | 110.28 | 128 | 108.01 | 98.89 | 111.8 | 97.05 | 118.5 | 106.42 | 107.93 | 117.4 | 99.6 | 112.91 | 111.12
8 | Cc1ccc(C(=O)/C=C2/Nc3ccc(C)cc3OC2=O)cc1 | 116.56 | 110.04 | 100.21 | 100.47 | 112.41 | 111.25 | 94.47 | 112.98 | 108.86 | 99.9 | 110.94 | 108.44 | 77.12 | 72.48 | 104.52 | 115.37 | 106.74 | 104.44 | 122.96 | 108.24
9 | Cc1ccc(CNC(=O)c2[nH]c3ccccc3c2Cl)cc1 | 95.55 | 107.58 | 99.25 | 106.22 | 109.98 | 102.13 | 110.2 | 106.86 | 115.69 | 95.25 | 106.3 | 110.44 | 99.93 | 123.78 | 105.35 | 92.6 | 89.46 | 84.33 | 95.86 | 96.65
10 | Cc1ccc(S(=O)(=O)Oc2ccc(-c3cnc4ccccc4n3)cc2)cc1 | 115.17 | 106.69 | 84.98 | 93.02 | 103.74 | 96.77 | 109.58 | 107.13 | 107.31 | 96.23 | 93.92 | 113.49 | 96.08 | 117.79 | 123.73 | 104.03 | 105.85 | 87.98 | 110.2 | 99.19
